In paper PMC9226319, “Peripherally restricted transthyretin-based delivery system for probes and therapeutics avoiding opioid-related side effects” (Nature Communications, 2022):
Values joined by “and” are separate entries in the source; they are usually repeats but may differ in a detail not shown here. Identical values can stand only once. Like-named read-outs stand apart in the source and are kept apart here.

Key:
[1] = tested on: male Sprague-Dawley rats; details: rat, in vivo
[2] = tested on: male Sprague-Dawley rats; assay: Gastrointestinal (GI) transit (charcoal meal) assays; assay type: in vivo, rat; details: rat, in vivo
[3] = in vivo; details: male, Sprague Dawley, rat, iv, 4.84 umol/kg
[4] = rat, single IV bolus 4.84 µmol/kg
[5] = rat, single SC dose 16 µmol/kg
[6] = in vivo; details: male, Sprague Dawley, rat, sc, 16 umol/kg
[7] = biological target: TTR in human serum (Homo sapiens, UniProt P02766); assay: TTR serum fluorescent probe exclusion (FPE) selectivity assay; assay type: binding; details: ligand 10 µM; for % TTR occupancy in human serum: FPE probe 3.6 µM, 3 h reading relative to probe alone, text mean ± s.d., table replicates; for %FPE probe fluorescence: human serum, replicates

## CN1CC[C@]23c4c5ccc(O)c4O[C@H]2[C@@H](O)C=C[C@H]3[C@H]1C5 [Morphine, reference compound]
[1]; iv
  hot plate latency: 60 s
[1]; sc
  hot plate latency: 57.0 ± 2.5 s and 60 s
  hot plate latency, compound alone: 60 s
[2]; sc
  GI transit as % of saline group: 18.81% and 20.1% and 15.01% and 14.94% and 19.9%

## C=CCN1CC[C@]23c4c5ccc(O)c4O[C@H]2C(=O)CC[C@@]3(O)[C@H]1C5 [Naloxone, reference compound]
[3]
  AUC(0-inf): 1.46 ± 0.257 µM·h
  Vd: 1.23 ± 0.42 L/kg
  clearance: 56.5 mL/min/kg
  half-life: 52.2 ± 7.8 min
[4]
  k: 0.81 ± 0.13 h⁻¹
[5]
  k: 1.03 ± 0.1 h⁻¹
[6]
  AUC(0-inf): 1.76 ± 0.237 µM·h
  CL/F: 152 mL/min/kg
  Vd/F: 8.94 ± 2.08 L/kg
  half-life: 40.2 ± 4.2 min

## COc1ccc2c3c1O[C@H]1C(=O)CC[C@@]4(O)[C@@H](C2)N(C)CC[C@]314 [Oxycodone, reference compound]
[1]
  analgesia (hot plate): did not result in significant analgesia or constipation
  analgesic effect 1 hour after ICV dosing: no analgesic effect
[1]; sc
  hot plate latency: 56.8 ± 3.8 s
[5]
  k: 0.9 ± 0.12 h⁻¹
[6]
  AUC(0-inf): 4.85 ± 0.676 µM·h
  CL/F: 55.3 mL/min/kg
  half-life: 46.8 ± 5.4 min
[2]
  GI transit (% of vehicle): 18.7 ± 3.0%
  constipation (GI transit): did not result in significant analgesia or constipation
[2]; sc
  GI transit (% of vehicle): 8.0 ± 2.7%
  GI transit as % of vehicle group: 4.72% and 11.93% and 8.19% and 6.37% and 8.96%

## O=C(O)c1ccc2nc(-c3cc(Cl)cc(Cl)c3)oc2c1 [Tafamidis, reference compound]
[7]
  % TTR occupancy in human serum: 47.45% and 46.83% and 51.34% and 50.15%
[7]; listed as tafamidis
  % TTR occupancy in human serum: 48.9 ± 2.2%
[7]; time 0.000 h
  %FPE probe fluorescence: 0.000%
[7]; time 0.083 h
  %FPE probe fluorescence: 1.299% and -1.005% and 0.704% and 3.155%
[7]; time 0.250 h
  %FPE probe fluorescence: 4.449% and 1.397% and 6.031% and 9.730%
[7]; time 0.500 h
  %FPE probe fluorescence: 5.578% and 5.344% and 9.630% and 15.940%
[7]; time 1.000 h
  %FPE probe fluorescence: 17.103% and 15.634% and 16.546% and 22.347%
[7]; time 1.250 h
  %FPE probe fluorescence: 23.082% and 19.584% and 22.707% and 26.257%
[7]; time 1.500 h
  %FPE probe fluorescence: 27.125% and 23.274% and 25.961% and 28.688%
[7]; time 1.750 h
  %FPE probe fluorescence: 32.902% and 29.136% and 30.570% and 32.212%
[7]; time 2.000 h
  %FPE probe fluorescence: 35.080% and 33.047% and 36.500% and 37.379%
[7]; time 2.250 h
  %FPE probe fluorescence: 40.669% and 40.161% and 39.661% and 42.469%
[7]; time 2.500 h
  %FPE probe fluorescence: 46.027% and 42.493% and 42.354% and 44.462%
[7]; time 2.750 h
  %FPE probe fluorescence: 50.625% and 47.468% and 47.510% and 47.875%
[7]; time 3.000 h
  %FPE probe fluorescence: 53.169% and 48.662% and 49.846% and 52.554%
[7]; time 3.500 h
  %FPE probe fluorescence: 60.381% and 56.275% and 57.091% and 59.281%
[7]; time 3.750 h
  %FPE probe fluorescence: 61.493% and 61.080% and 58.641% and 60.288%
[7]; time 4.000 h
  %FPE probe fluorescence: 65.122% and 63.511% and 61.468% and 61.493%
[7]; time 4.250 h
  %FPE probe fluorescence: 66.463% and 64.406% and 63.696% and 64.254%
[7]; time 4.500 h
  %FPE probe fluorescence: 68.966% and 68.075% and 65.963% and 66.999%
[7]; time 4.750 h
  %FPE probe fluorescence: 72.160% and 67.655% and 67.312% and 67.678%
[7]; time 5.000 h
  %FPE probe fluorescence: 70.882% and 70.753% and 66.636% and 68.909%
[7]; time 5.250 h
  %FPE probe fluorescence: 72.950% and 73.018% and 69.707% and 71.230%
[7]; time 5.500 h
  %FPE probe fluorescence: 75.965% and 73.410% and 70.521% and 70.704%
[7]; time 5.750 h
  %FPE probe fluorescence: 76.955% and 73.721% and 71.869% and 74.221%
[7]; time 6.000 h
  %FPE probe fluorescence: 78.267% and 76.878% and 72.520% and 75.177%
